Assay results published in ChEMBL document CHEMBL3046004, “Esterase-mediated resistance to pyrethroids in field populations of Helicoverpa armigera (Lepidoptera: Noctuidae) from Central Africa” (2009).

Legend:
Format in all cases: functional
Helicoverpa armigera [1] = assay: Resistance factor, ratio of LD50 for fourth-instar larval stage of Helicoverpa armigera field strain Gaschiga isolated from tomato plant to LD50 for fourth-instar larval stage of pyrethroid-susceptible Helicoverpa armigera laboratory strain BK-77
Helicoverpa armigera [2] = assay: Resistance factor, ratio of LD50 for fourth-instar larval stage of Helicoverpa armigera field strain Ngong to LD50 for fourth-instar larval stage of pyrethroid-susceptible Helicoverpa armigera laboratory strain BK-77
Helicoverpa armigera [3] = assay: Insecticidal activity against fourth-instar larval stage of Helicoverpa armigera field strain Pitoa isolated from tomato plant assessed as mortality applied topically onto thorax measured after 48 hr
Helicoverpa armigera [4] = assay: Insecticidal activity against fourth-instar larval stage of Helicoverpa armigera field strain Pitoa isolated from maize plant assessed as mortality applied topically onto thorax measured after 48 hr
Helicoverpa armigera [5] = assay: Insecticidal activity against fourth-instar larval stage of pyrethroid-resistance Helicoverpa armigera laboratory strain GS-RR06 assessed as mortality applied topically onto thorax measured after 48 hr
Helicoverpa armigera [6] = assay: Insecticidal activity against fourth-instar larval stage of pyrethroid-susceptible Helicoverpa armigera laboratory strain BK-77 assessed as mortality applied topically onto thorax measured after 48 hr
Helicoverpa armigera [7] = assay: Resistance factor, ratio of LD50 for fourth-instar larval stage of Helicoverpa armigera field strain Pitoa isolated from tomato plant to LD50 for fourth-instar larval stage of pyrethroid-susceptible Helicoverpa armigera laboratory strain BK-77
Helicoverpa armigera [8] = assay: Resistance factor, ratio of LD50 for fourth-instar larval stage of Helicoverpa armigera field strain Pitoa isolated from maize plant to LD50 for fourth-instar larval stage of pyrethroid-susceptible Helicoverpa armigera laboratory strain BK-77
Helicoverpa armigera [9] = assay: Resistance factor, ratio of LD50 for fourth-instar larval stage of pyrethroid-resistance Helicoverpa armigera laboratory strain GS-RR06 to LD50 for fourth-instar larval stage of pyrethroid-susceptible Helicoverpa armigera laboratory strain BK-77
Helicoverpa armigera [10] = assay: Insecticidal activity against fourth-instar larval stage of Helicoverpa armigera field strain Gaschiga isolated from tomato plant assessed as mortality applied topically onto thorax measured after 48 hr
Helicoverpa armigera [11] = assay: Insecticidal activity against fourth-instar larval stage of Helicoverpa armigera field strain Ngong isolated from cotton plant assessed as mortality applied topically onto thorax measured after 48 hr
Helicoverpa armigera [12] = assay: Insecticidal activity against fourth-instar larval stage of Helicoverpa armigera field strain Tchollire isolated from cotton plant assessed as mortality applied topically onto thorax measured after 48 hr
Helicoverpa armigera [13] = assay: Resistance factor, ratio of LD50 for fourth-instar larval stage of Helicoverpa armigera field strain Tchollire to LD50 for fourth-instar larval stage of pyrethroid-susceptible Helicoverpa armigera laboratory strain BK-77

Structure (SMILES) | Ratio (Helicoverpa armigera [1]) | Ratio (Helicoverpa armigera [2]) | LD50 (Helicoverpa armigera [3]) | LD50 (Helicoverpa armigera [4]) | LD50 (Helicoverpa armigera [5]) | LD50 (Helicoverpa armigera [6]) | Ratio (Helicoverpa armigera [7]) | Ratio (Helicoverpa armigera [8]) | Ratio (Helicoverpa armigera [9]) | LD50 (Helicoverpa armigera [10]) | LD50 (Helicoverpa armigera [11]) | LD50 (Helicoverpa armigera [12]) | Ratio (Helicoverpa armigera [13])
O=S1OCC2C(CO1)C1(Cl)C(Cl)=C(Cl)C2(Cl)C1(Cl)Cl (stereo unspecified) [ENDOSULFAN] | 0.7 | 0.1 | 36.2 microgAi/g | 37.9 microgAi/g | 27.5 microgAi/g | 37.6 microgAi/g | 1 | 1 | 0.7 | 25.9 microgAi/g | 34 microgAi/g | – | –
CCOc1ccc(C(C)(C)COCc2cccc(Oc3ccccc3)c2)cc1 [ETOFENPROX] | 4 | 2 | 531.4 microgAi/g | 285.3 microgAi/g | 135.7 microgAi/g | 55.5 microgAi/g | 10 | 5 | 2 | 229.3 microgAi/g | 136.6 microgAi/g | 152.2 microgAi/g | 3
COC(=O)N(C(=O)N1CO[C@@]2(C(=O)OC)Cc3cc(Cl)ccc3C2=N1)c1ccc(OC(F)(F)F)cc1 [INDOXACARB] | 0.4 | 1.4 | 1.3 microgAi/g | 0.7 microgAi/g | 0.7 microgAi/g | 0.7 microgAi/g | 2 | 1.1 | 1 | 0.3 microgAi/g | 0.9 microgAi/g | – | –
CCCSP(=O)(OCC)Oc1ccc(Br)cc1Cl (stereo unspecified) [PROFENOFOS] | 5.3 | 4 | 36.2 microgAi/g | 19.5 microgAi/g | 17.7 microgAi/g | 4.6 microgAi/g | 7.9 | 4.2 | 3.9 | 24.3 microgAi/g | 18.5 microgAi/g | – | –
